Molecular target: wild-type human GLP-1R (Homo sapiens, UniProt P43220)
Test: GLP-1R Cell Assay 1 (cAMP Hunter CHO-K1 GLP1R Gs cell line, HitHunter cAMP assay)
Type: cell-based
Conditions: agonist activity, cellular cAMP, CHO-K1 overexpressing human GLP-1R; normalized to Exendin-4; Table 3; no stereo designation = tested as mixture of stereoisomers
Description: GLP-1R mediated agonist activity was determined using the cAMP Hunter CHO-K1 GLP1R Gs cell line (DiscoverX, cat #95-0062C2), a stable CHO-K1 derived cell lines overexpressing naturally Gs coupled wild-type human GLP-1R (accession number: NM_002062.3). GLP-1R agonism in this cell line was detected by measuring cellular cAMP levels using the HitHunter cAMP assay kit (cat #90-0075SM2), a homogenous, gain-of-signal competitive immune assay based on Enzyme Fragment Complementation (EFC) technology. In this system cellular cAMP competes with exogenous labeled cAMP (ED-cAMP) for binding to an anti-cAMP antibody. […] The luminescent signal is directly proportional to the amount of cellular cAMP.
For compound testing, cells were seeded in a total volume of 20 μL in white walled, 384-well microplates and incubated at 37° C. prior to compound testing. Prior to compound addition, cell culture media was removed by aspiration and replaced with 15 μL reagent buffer (2:1 HBSS/10 mM HEPES: cAMP XS+Ab reagent). […] Microplates were read on a PerkinElmer Envision instrument. Compound activity was analyzed using CBIS data analysis suite (ChemInnovation). Percent activity was calculated based on duplicate assay runs and normalized to the positive control Exendin-4, a GLP-1R peptide agonist, using the following formula: […]

Sequence of wild-type human GLP-1R (P43220 24-463): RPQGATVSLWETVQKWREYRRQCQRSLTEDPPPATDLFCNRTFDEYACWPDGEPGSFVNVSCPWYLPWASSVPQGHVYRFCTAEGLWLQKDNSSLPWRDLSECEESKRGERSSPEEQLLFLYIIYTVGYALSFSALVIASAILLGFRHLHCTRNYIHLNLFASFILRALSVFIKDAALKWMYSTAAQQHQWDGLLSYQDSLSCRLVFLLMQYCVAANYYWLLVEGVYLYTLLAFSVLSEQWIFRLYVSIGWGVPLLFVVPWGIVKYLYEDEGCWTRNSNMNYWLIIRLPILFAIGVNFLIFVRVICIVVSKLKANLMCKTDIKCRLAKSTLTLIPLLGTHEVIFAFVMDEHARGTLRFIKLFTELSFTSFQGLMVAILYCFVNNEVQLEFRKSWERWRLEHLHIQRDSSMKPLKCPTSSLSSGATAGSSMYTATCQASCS

## CCn1cncc1Cn1c(CN2CC[C@]3(c4cccnc4OCc4ccc(C#N)cc4F)C[C@@H]3C2)nc2ccc(C(=O)O)cc21 (single isomer, unassigned) [Compound 166, 2-((6-(2-((4-cyano-2-fluorobenzyl)oxy)pyridin-3-yl)-3-azabicyclo[4.1.0]heptan-3-yl)methyl)-1-((1-ethyl-1H-imidazol-5-yl)methyl)-1H-benzo[d]imidazole-6-carboxylic acid]
  EC50: 59.4 nM

Reference: patent publication US20230322744A1, “COMPOUNDS AS GLP-1R AGONISTS” (Terns Pharmaceuticals, Inc., priority 2020, published 2023)
